Assay results from PubChem BioAssay (NCI).
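Interpolation was linear, between the two tested concentrations surrounding the appropriate level; five concentrations were tested over 48 hours in 96-well plates. At the TGI there is no net growth.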

What was measured:
Experiment in all cases: inhibition of tumour cell growth, NCI panel, 48 h
U251 CNS = test system: U251 CNS
CCRF-CEM leukemia = test system: CCRF-CEM leukemia
BT-549 breast = test system: BT-549 breast
MDA-MB-435 = test system: MDA-MB-435
HCT-116 colon = test system: HCT-116 colon
SR leukemia = test system: SR leukemia
SK-MEL-2 melanoma = test system: SK-MEL-2 melanoma
HOP-62 NSCLC = test system: HOP-62 NSCLC
COLO 205 colon = test system: COLO 205 colon
786-0 renal = test system: 786-0 renal
ACHN renal = test system: ACHN renal
OVCAR-8 ovarian = test system: OVCAR-8 ovarian
SF-268 CNS = test system: SF-268 CNS
NCI-H460 lung = test system: NCI-H460 lung
SK-MEL-28 melanoma = test system: SK-MEL-28 melanoma
RPMI-8226 leukemia = test system: RPMI-8226 leukemia
SF-539 CNS = test system: SF-539 CNS
T-47D breast = test system: T-47D breast
NCI-H522 lung = test system: NCI-H522 lung
OVCAR-5 ovarian = test system: OVCAR-5 ovarian
OVCAR-3 ovarian = test system: OVCAR-3 ovarian
UACC-257 melanoma = test system: UACC-257 melanoma
SK-MEL-5 melanoma = test system: SK-MEL-5 melanoma
MOLT-4 leukemia = test system: MOLT-4 leukemia
A549 NSCLC = test system: A549 NSCLC
HL-60(TB) leukemia = test system: HL-60(TB) leukemia
OVCAR-4 ovarian = test system: OVCAR-4 ovarian
LOX IMVI melanoma = test system: LOX IMVI melanoma
SN12C renal = test system: SN12C renal
NCI-H23 lung = test system: NCI-H23 lung
KM12 colon = test system: KM12 colon
NCI-H226 lung = test system: NCI-H226 lung
UACC-62 melanoma = test system: UACC-62 melanoma
SNB-75 CNS = test system: SNB-75 CNS
HS 578T breast = test system: HS 578T breast
SNB-19 CNS = test system: SNB-19 CNS
HCC-2998 colon = test system: HCC-2998 colon
DU-145 prostate = test system: DU-145 prostate
UO-31 renal = test system: UO-31 renal
HT29 colon = test system: HT29 colon
HCT-15 colon = test system: HCT-15 colon
IGROV1 ovarian = test system: IGROV1 ovarian
SF-295 CNS = test system: SF-295 CNS
NCI/ADR-RES ovarian = test system: NCI/ADR-RES ovarian
SK-OV-3 ovarian = test system: SK-OV-3 ovarian
M14 melanoma = test system: M14 melanoma
TK-10 renal = test system: TK-10 renal
CAKI-1 renal = test system: CAKI-1 renal
PC-3 prostate = test system: PC-3 prostate
MDA-N = test system: MDA-N
SW-620 colon = test system: SW-620 colon
MDA-MB-231 breast = test system: MDA-MB-231 breast
HOP-92 NSCLC = test system: HOP-92 NSCLC
RXF 393 renal = test system: RXF 393 renal
A498 renal = test system: A498 renal
K-562 leukemia = test system: K-562 leukemia
MCF7 breast = test system: MCF7 breast
EKVX NSCLC = test system: EKVX NSCLC
MALME-3M melanoma = test system: MALME-3M melanoma

Measured: TGI

Nc1n[n+]([O-])c2cnccc2[n+]1[O-]
30 µM: SK-MEL-5 melanoma
47.7 µM: HL-60(TB) leukemia
38.5 µM: MDA-MB-435
84.9 µM: UACC-62 melanoma
77.9 µM: UACC-257 melanoma
36.6 µM: MDA-N
not listed: HOP-92 NSCLC | RXF 393 renal | A498 renal | K-562 leukemia | MCF7 breast | EKVX NSCLC | MALME-3M melanoma
> 100 µM: all other assays above

COC(=O)C1=C2Nc3ccccc3C23CCN2C(O)C4(CC5CC67CCOC6CCN6CCC8(c9cccc(OC)c9N(C4)C58O)C67)C4OCCC4(C1)C23 (stereo not given)
55.7 µM: T-47D breast
87.7 µM: HOP-92 NSCLC
68.3 µM: SNB-75 CNS
50.5 µM: 786-0 renal
77.5 µM: HS 578T breast
61.3 µM: OVCAR-8 ovarian | MDA-MB-231 breast
not listed: MOLT-4 leukemia | NCI/ADR-RES ovarian
> 100 µM: all other assays above

CC(=O)O[C@H]1CC[C@H]2[C@@H]3CC[C@H]4Nc5c(cnn5S(C)(=O)=O)C[C@]4(C)[C@H]3CC[C@]12C
78.1 µM: OVCAR-3 ovarian
77.4 µM: HOP-62 NSCLC
80.9 µM: BT-549 breast
82.4 µM: MCF7 breast
not listed: 786-0 renal | ACHN renal | SF-268 CNS | SF-539 CNS | UACC-257 melanoma | A549 NSCLC | LOX IMVI melanoma | TK-10 renal | SW-620 colon | EKVX NSCLC
> 100 µM: all other assays above

CCOC(=O)c1ccc2c(=O)n3c(C(=O)OCC)ccc3c(=O)n12
not listed: SF-539 CNS | HOP-92 NSCLC
> 100 µM: all other assays above
